According to patent publication US8217068B2, “Compound with anesthetics activity, methods for its production and pharmaceutical compositions comprising the same” (Universidade Federal de Pernambuco—UFPE, priority 2007, dated 2012):

Columns and labels:
Assay type in all cases: in vivo
male Swiss mice [1] = experiment: Hot Plate Test, analgesic activity (% AA) after i.p. administration
Method: The activity of several compounds with action in central nervous system as opioids, which the main drug is morphine, and the alpha-2 adrenoceptor agonist as clonidine have been identified by this method.
The analgesic activity of LPSF-PT-31, GIRSUPAN was investigated in male Swiss mice weighting 18-24 grams using the Hot Plate Test method (Brain Res. 1983, 245-252). The animals were positioned on a hot plate stabilized at 52° C. using the equipment Analgesic Meter-Letica LE 7406. When the pain threshold was achieved the animals raised and licked the front paw to cool down the temperature. The time between positioning the animals on the plate and lick the paw was the latency of the pain reaction. The maximal time (cut-off) allowed to the animals staying on the hot plate was three times the latency time measured on the control. The cut-off was very important to avoid skin damage of the paw.
The analgesic effect of the tested compounds was converted to a unit denominated analgesic activity (% AA) (Brain Res. 1983, 245-252) calculated by equation % AA=((post-drug latency)−(control latency))/((cut off)−(control latency))×100. The experimental protocol used to test the analgesic effect of the compound LPSF-PT-31, GIRSUPAN, consisted to measure the AA in the control condition (before drug administration) and after (i.p.) intraperitoneal administration of increasing dose (1, 5, 10 and 15 mg·kg^−1).
In another experimental group, dimethyl sulfoxide used as vehicle for diluting LPSF-PT-31, GIRSUPAN, was i.p. administered at same volume used for the tested drug. The AA was measured until complete recovery to the control condition.

Wistar male rats [2] = experiment: Hot Plate analgesic effect after intrathecal administration
Method: Stimulation of alpha-2 adrenoceptors distributed at spinal cord cause analgesia. […] Thus, the analgesic activity of LPSF-PT-31, GIRSUPAN was investigated after intrathecal administration. Wistar male rats weighting 240-280 grams were positioned in abdominal under light general anesthesia with sevoflurane. Puncture between L4-L5 was performed with low diameter needle (29 G) and LPSF-PT-31, GIRSUPAN was injected at dose of 20, 40, 80 or 160 μg diluted in constant volume of 50 μl. Sevoflurane was the elected anesthetic due to low blood solubility causing a fast induction and recovery of anesthesia.
Thus, the animals were completely recovered few minutes after punction and injection LPSF-PT-31, GIRSUPAN and AA activity started to measure from 10 minutes. […] The maximal analgesic effect measured by Hot Plate was ca. 40% sustained by 180 minutes. This intensity of analgesic effect is observed with alpha-2 adrenoceptor agonist as clonidine.

male Swiss mice [3] = experiment: Sedative activity by measuring motor activity (Motor Activity Monitor)
Method: The sedative activity of 3-(2-chloro-6-fluoro-benzyl)-imidazolidine-2,4-dione LPSF-PT-31, GIRSUPAN was investigated in male Swiss mice weighting 18-24 grams by measuring the motor activity (Motor Activity Monitor, Letica LE 8811). In this equipment the animals are positioned in an open square field and a set of invisible beans cross the field. The interruption of the beans was used to quantify the motor activity. After a period of adaptation the motor activity of the animals was measured during 20 min.
Decrease of motor activity represents reduction of brain activity and this observation is useful to investigate the effect of drug with sedative, hipnotic, anxyolitic and general anesthetic properties (Bioorg. Med. Chem. 2006, 14:632-640). Thus, measurement of motor activity is not a method to identify a specific group of pharmacological class.

Wistar male rats [4] = experiment: Activity on cardiovascular system: blood pressure and EKG recording in awake animals; details: 10 mg/kg single dose through external jugular vein
Method: Hypotension and reduction of heart rate are the major concern of alpha-2 adrenoceptor agonist as clonidine. These effects are justified by decreasing the central nervous system sympathetic outflow due to activation of alpha-2 adrenoceptor. With the aim to investigate if LPSF-PT-31, GIRSUPAN could cross the brain barrier and reduces the hemodynamic response, Wistar male rats weighing 230-280 grams were prepared for blood pressure and electrocardiogram (EKG) recording. The heart rate was estimated by analysis of EKG. LPSF-PT-31, GIRSUPAN (10 mg/kg) was injected trough external jugular vein in a single dose in awaked animals. The blood pressure and the heart rate were not changed showing that LPSF-PT-31, GIRSUPAN is a stable compound for the cardiovascular system differently that occurs with clonidine.

male Swiss mice [5] = experiment: Isobolographic analysis of the combination with morphine (analgesic effect, DE50); details: i.p., combination of fractions of DE50 of each drug, FIG. 3
Method: First, we determined the dose of morphine that cause 50% of maximal analgesic effect (DE50) after administration (i.p.) in incremental doses. […] Fraction of association of DE50 of each drug was administrated and the DE50 of combination was determined. A isobolographic analysis (FIG. 3) using the DE50 of each drug and of the combination was performed using a computer program (Life Sci 1989 45: 947-961) to determine the type of interaction.

O=C1CNC(=O)N1Cc1c(F)cccc1Cl [LPSF-PT-31, 3-(2-chloro-6-fluoro-benzyl)-imidazolidine-2,4-dione]
maximal effect (% AA) (male Swiss mice [1]; 15 mg·kg^−1 i.p.): about 80 % AA
duration of plateau of analgesic effect (male Swiss mice [1]; i.p.): 40 to 50 min
time of peak of analgesic effect (male Swiss mice [1]; i.p.): approximately 20 min
time to complete recovery from the analgesic effect (male Swiss mice [1]; i.p.): 100 to 120 min
effect on % AA (analgesic activity) (male Swiss mice [1]; i.p. 1, 5, 10 and 15 mg·kg^−1, hot plate 52° C., FIG. 1): increased the % AA in a dose-dependent manner
reversal of analgesic effect by naloxone (antagonist of opioid receptor) (male Swiss mice [1]; naloxone 1 mg·kg^−1 i.p.): partially reversed
reversal of analgesic effect by flumazenil (antagonist of benzodiazepine receptor) (male Swiss mice [1]; previous treatment with flumazenil 0.3 mg·kg^−1): not reversed
reversal of analgesic effect by yohimbine (antagonist of alpha-2 adrenoceptor) (male Swiss mice [1]; yohimbine 5 mg·kg^−1 i.p., compound 10 mg·kg^−1, FIG. 2): completely reversed
duration of maximal analgesic effect (Wistar male rats [2]; intrathecal): 180 min
maximal analgesic effect measured by Hot Plate (Wistar male rats [2]; intrathecal): ca. 40%
effect on pain reaction after intrathecal administration (Wistar male rats [2]; intrathecal 20, 40, 80 or 160 μg in 50 μl, FIG. 4): reduces the pain reaction after intrathecal administration in a dose-dependent manner
reduction of motor activity (male Swiss mice [3]; 10 mg·kg^−1, motor activity measured during 20 min, FIG. 5): ca. 80%
intensity of motor activity reduction versus positive control (male Swiss mice [3]; 10 mg·kg^−1, positive control midazolam, FIG. 5): comparable to midazolam
reversal of decrease of motor activity by yohimbine (male Swiss mice [3]; yohimbine): completely reversed
blood pressure (Wistar male rats [4]): not changed
heart rate (estimated by analysis of EKG) (Wistar male rats [4]): not changed
type of interaction with morphine (isobolographic analysis of DE50) (male Swiss mice [5]): strong synergic interaction
